The METLIN SMRT retention time set (Domingo-Almenara et al. 2019)

Assay: gradient 5% acetonitrile 3 min, to 50% in 2 min, to 85% in 15 min, held 3 min, 100 µL/min
Conditions: column: Zorbax Extend-C18 2.1 x 50 mm; eluents: water / acetonitrile, 0.1% formic acid
In short: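 Pure standards were run in mixtures of ~100 molecules by HPLC coupled to a quadrupole time-of-flight mass spectrometer. The column was a Zorbax Extend-C18 (2.1 × 50 mm, 1.8 μm) at 100 μL/min, with water and acetonitrile each containing 0.1% formic acid, in positive and negative ionization mode. Dead and dwell volumes were 40 μL and 900 μL. Retention time was taken from computationally picked adduct peaks, each manually inspected, with data collected over 3 months.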

Structure (SMILES)	RP-LC retention time [s]
Cn1nc(CNC(=O)c2ccc3c(c2)OCO3)c2ccccc21	760
CCCNC(=O)C1CCCN(c2nc3ncn(CC(=O)N4CCc5ccccc5C4)c(=O)c3s2)C1 (configuration not stated)	705
CCc1ccccc1NC(=O)CSc1cc(N2CCN(c3ccccc3OC)CC2)ncn1	1040
CN(Cc1nc2cc(C(=O)N3CCCC3)ccc2n1C)C(=O)Nc1ccc(Br)cc1F	659
O=C1CCCC2=C1C(c1ccccc1Cl)C1=C(CCCC1=O)O2	812
CCOC(=O)c1sc(NC(=O)C2CC2)nc1-c1ccccc1	942
O=C1NCCCCCN(C(=O)c2ccco2)[C@@H]2C[C@@H](C(=O)N3CCc4ccccc4C3)C[C@H]12	752
Cc1ccc(-n2nc(N3CCCC(C(=O)NC(C)CCc4ccccc4)C3)ccc2=O)cc1Cl (configuration not stated)	1060
Cn1nccc1C(=O)N1CCN(c2nc3c(S(C)(=O)=O)cccc3s2)CC1	656
CCN1CCCC1CNC(=O)CCc1nc(-c2ccc(N3CCCC3)cc2)no1 (configuration not stated)	685
CCOc1ccccc1CNC(=O)C1CCN(S(=O)(=O)c2ccc3c(c2)NC(=O)CO3)CC1	757
COC(=O)c1ncn2c1C(=O)N(c1ccc(C)cc1)C(C)(C(=O)NCc1ccc(C)cc1)C2 (configuration not stated)	747
CCOC(=O)c1ccccc1NC(=O)CSc1nnc2c3cc(-c4ccc(C)cc4)nn3ccn12	1080
CCc1ccccc1NC(=O)CSc1nnc2c3cc(-c4ccc(C)c(C)c4)nn3ccn12	1050
O=C(N[C@@H]1CN(c2ncccn2)C[C@H]1CO)c1ccco1	566
CN(C)S(=O)(=O)c1ccc2c(c1)N(CC(=O)NCCC1=CCCCC1)C(=O)C1CCCCN21 (configuration not stated)	996
COc1ccc(Cn2cc(S(=O)(=O)N3CCCCCC3)ccc2=O)cc1	818
C#CCCNC(=O)c1cccn(C)c1=O	572
COCc1noc([C@@H]2CN(C(=O)CC3CCCC3)C[C@H]2CO)n1	670
COCCn1cc(CC(=O)NC2CCCCCC2)c2cccnc21	746
CCn1c(C)c(CCC(=O)Nc2ccccc2)c(=O)n2nc(-c3ccccc3)nc12	847
O=C(Nc1ccc(F)cc1)Nc1nccn(-c2ccc(Br)cc2)c1=O	985

Structure (SMILES)	RP-LC retention time [s]
Cc1nc(-c2ccc(N3CCN(C(=O)c4cccc(C#N)c4)CC3)nc2)sc1C	825
CNC(=O)C1CCN(c2nc3ccc(-c4ccc(F)cc4)nc3s2)CC1	824
CCOc1ccc(NC(=O)c2c(O)c3cccnc3n(-c3ccccc3)c2=O)cc1	1270
O=C1COc2ccc(S(=O)(=O)N3CCCC3C(=O)Nc3cccc(Cl)c3)cc2N1 (configuration not stated)	835
COc1ccc(N2CC(c3nnc(NC(=O)COc4ccc(C)cc4)o3)CC2=O)cc1 (configuration not stated)	742
CSc1ccc(CCNC(=O)c2ccc(CN3CC(=O)N4CCCCC4C3=O)cc2)cc1 (configuration not stated)	738
COc1ccc(OCc2nc(-c3ccc(NS(=O)(=O)c4cccs4)cc3)no2)cc1	1040
Cc1[nH]c(C(=O)N2CCC(CC(=O)NCc3ccco3)CC2)c(C)c1C(=O)OC(C)C	765
CCOc1ccc(C(=O)N2C[C@@H]3C[C@H]2C[C@@H]3NC(=O)c2cccs2)cc1	758
O=C(Nc1cccc(Cl)c1)c1c(O)c2cccnc2n(-c2ccccc2)c1=O	1340
CC(=O)N1CCc2ccc(C(=O)NC3CCCCCC3)cc21	778
O=C(NCc1ccco1)C1CCN(c2nnc(-c3ccccc3)o2)CC1	718
CC(C)NC(=O)N1CCCC(c2cccc(C(=O)NCc3cccs3)c2)C1 (configuration not stated)	799
O=C(Cn1nc(N2CCOCC2)c2ccccc2c1=O)Nc1ccccc1	742
CSc1ccc(NC(=O)CN2C(=O)C3CCCN3C(=O)c3cc(C)ccc32)cc1 (configuration not stated)	785
Cc1ccc2c(c1)C(O)(CC(=O)c1cccc(-n3cccc3)c1)C(=O)N2 (configuration not stated)	711
COC(=O)c1cc(OCC(=O)Nc2ccc(OC)c(Cl)c2)c2cc(OC)ccc2n1	867
Cc1noc([C@@H]2CC(F)(F)CN2C(=O)c2occc2C)n1	756
CC(C(=O)N1CCC(N2CCc3ccccc32)CC1)c1ccccc1 (configuration not stated)	1010
Cn1cc(CC(=O)NCc2ccc(F)c(Cl)c2)c2cccnc21	725
Cn1c(=O)n(C)c2cc(S(=O)(=O)c3ccc(F)cc3)c(NC(=O)c3ccccc3)cc21	885
Cc1ccc(NC(=O)Cn2ncc3c(c2=O)N(C)C(=O)CS3)c(Br)c1	714

Structure (SMILES)	RP-LC retention time [s]
COC(=O)c1ccc(CSc2nnc(NC(=O)c3snnc3C)s2)o1	743
COC(=O)Nc1nc(CC(=O)NCc2cn3ccccc3n2)cs1	617
O=C(Nc1ccccc1)c1nnc(CCCC(=O)N2CCN(c3ccccn3)CC2)s1	638
Cc1ccc(CC(=O)NC2CCN(c3cc(-c4cccs4)[nH]n3)C2)cc1 (configuration not stated)	732
COCCCNC(=O)Cn1nc2cc(C)nc(-c3ccc(C(F)(F)F)cc3)n2c1=O	765
Cc1ccc2nc(N3CCN(c4ccc(F)cc4)CC3)c(-c3noc(C)n3)cc2c1	732
Cc1cc(C)n(-c2ccnc(N3CCc4ccccc4C3)n2)n1	1150
c1ccc2c3c([nH]c2c1)CNCC3	703
CC(C)c1nccn1C1CN(S(=O)(=O)c2cccc(F)c2)C1	640
O=C(NC1CC1)[C@@H]1C[C@H](Oc2ccccc2)CN1C(=O)C1(c2ccccc2)CC1	855
Cc1[nH]c(=O)[nH]c(=O)c1CC(=O)NCCc1cccs1	574
CC(=O)Nc1ccc2c(c1)CN(C(=O)c1ccccc1F)C(C(=O)N1CCCC1)C2 (configuration not stated)	646
COc1cccc(-c2nc3cnccn3c2NCCC(=O)NC2CCN(C)CC2)c1	554
O=C(c1ccco1)N1CC(Oc2ccc(-c3nc(-c4ccccc4)no3)cc2)C1	856
O=C(Nc1nnc(C2CC(=O)N(c3ccc(F)cc3)C2)o1)c1cccc(Cl)c1 (configuration not stated)	750
CC1CCC2(CC1)NC(=O)N(CC(=O)Nc1cccc(F)c1)C2=O (configuration not stated)	816
CCc1ccc(NC(=O)c2cn(CC)nc2S(=O)(=O)N2CCSCC2)cc1	1100
CC(C)NC(=O)c1ccc(CN2CCN(Cc3ccc(F)cc3)C(=O)C2=O)cc1	668
CCC(=O)N1CCc2cc(N3CC(C(=O)Nc4ccc(C)cc4F)CC3=O)ccc21 (configuration not stated)	778
CN1CCN(C(=O)c2nnc(-c3ccc(S(=O)(=O)N4CCCCC4)cc3)o2)CC1	654
CCOc1ccc(NC(=O)c2cc3c(=O)n(CC(C)C)c4ccccc4n3n2)cc1	1150
CCN1CCN(C(=O)C(C)n2c(=O)c(C(F)(F)F)nc3cc(C)c(C)cc32)CC1 (configuration not stated)	702

Structure (SMILES)	RP-LC retention time [s]
CCC[C@@H]1C[C@@H](C(=O)N[C@@H]([C@H]2O[C@H](SC)[C@H](O)[C@@H](O)[C@@H]2O)[C@@H](C)O)N(C)C1	595
O=C(Nc1ccccc1F)C1CCN(c2cc(N3CCCCC3)ncn2)CC1	689
CCOC(=O)c1c(C)oc2ncnc(Nc3ccc4c(c3)OCCO4)c12	1120
CCc1ccc(NC(=O)C2CCN(S(=O)(=O)c3cc(C(=O)N4CCOCC4)cs3)CC2)cc1	859
O=C1c2ccccc2C(=O)N1c1ccc(OC(F)(F)F)cc1	954
COC(=O)c1ccccc1NC(=O)c1c(O)c2cccc3c2n(c1=O)CC3	1170
CCc1noc(-c2ccc(-n3cnc(C(=O)NC4CCCCCC4)c3)nc2)n1	968
CCOc1ccc(N2CC(c3nc(-c4ccccc4F)no3)CC2=O)cc1 (configuration not stated)	967
COc1ccc(-c2nc(Cc3noc(-c4ccc(C#N)cc4)n3)c(C)o2)cc1	1070
O=C(Nc1ccc2c(c1)OCCO2)N1CCN(Cc2ccccc2)c2ncccc21	731
CC(C)(C)n1nc2c(c1NC(=O)c1cccs1)CS(=O)(=O)C2	690
Cc1nc2ccccn2c(=O)c1Cc1nnc(SCc2cc(=O)c3cccc(C)c3[nH]2)n1C	599
CCN(CC)CCCNC(=O)C1c2ccccc2C(=O)N1Cc1ccc(C)cc1 (configuration not stated)	633
CN1CCC[C@@H]1Cc1c[nH]c2ccc(CCS(=O)(=O)c3ccccc3)cc12	604
COc1ccc(NC(=O)NC2CCN(c3ccccc3)C2=O)c(OC)c1 (configuration not stated)	761
Cc1nc2cc(-c3noc(-c4ccc(F)c(Cl)c4)n3)ccc2o1	1270
CCCc1nc(-c2cc3cccc(C)c3nc2NCCc2ccc(S(N)(=O)=O)cc2)no1	1300
O=C(CCC1CCCN(C(=O)Nc2ccc(F)cc2)C1)NCc1ccc(Cl)cc1 (configuration not stated)	856
CN1C(=O)c2cc(C(=O)NCc3ccccc3F)nn2CC1(C)C(=O)NC1CCCCCC1 (configuration not stated)	839
COc1ccc(-c2noc(COC(=O)C3=CN(C)S(=O)(=O)N=C3C)n2)cc1	926
CCc1ccc2nc(NC3=NCN(Cc4cccnc4)CN3)nc(C)c2c1	608
